Each structure is given as a SMILES string. Some results are limits rather than exact numbers.

This assay has as its target T1, OTU domain-containing protein 7B (Homo sapiens, UniProt Q6GQQ9).
T1 sequence (Q6GQQ9 whole entry): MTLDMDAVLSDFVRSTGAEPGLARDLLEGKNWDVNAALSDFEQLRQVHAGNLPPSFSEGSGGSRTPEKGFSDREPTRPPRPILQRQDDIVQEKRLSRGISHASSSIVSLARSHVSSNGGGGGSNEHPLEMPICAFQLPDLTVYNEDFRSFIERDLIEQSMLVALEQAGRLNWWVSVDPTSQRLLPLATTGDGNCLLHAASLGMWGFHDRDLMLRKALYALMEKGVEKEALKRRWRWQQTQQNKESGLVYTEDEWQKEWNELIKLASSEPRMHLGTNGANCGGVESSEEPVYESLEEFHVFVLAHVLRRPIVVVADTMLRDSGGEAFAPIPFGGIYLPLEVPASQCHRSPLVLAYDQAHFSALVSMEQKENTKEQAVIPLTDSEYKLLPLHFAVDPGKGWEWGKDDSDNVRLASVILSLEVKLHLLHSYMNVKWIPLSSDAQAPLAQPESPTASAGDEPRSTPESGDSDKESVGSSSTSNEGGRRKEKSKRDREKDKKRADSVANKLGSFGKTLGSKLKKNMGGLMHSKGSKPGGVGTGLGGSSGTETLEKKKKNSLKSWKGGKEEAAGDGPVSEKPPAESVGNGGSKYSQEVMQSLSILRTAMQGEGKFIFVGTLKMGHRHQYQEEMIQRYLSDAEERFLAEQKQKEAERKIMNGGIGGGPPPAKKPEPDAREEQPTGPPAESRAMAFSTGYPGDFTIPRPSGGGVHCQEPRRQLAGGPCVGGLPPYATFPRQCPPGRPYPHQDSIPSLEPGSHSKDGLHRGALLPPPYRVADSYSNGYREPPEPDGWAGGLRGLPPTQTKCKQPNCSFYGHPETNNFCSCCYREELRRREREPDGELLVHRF
Kind of assay: Biochemical Assay: Dilution plates were prepared at 21 times the final concentration (2100 μM for a final concentration of 100 μM) in 50% DMSO in a 96-well polypropylene V-bottom plate (Greiner #651201). A typical 8-point dilution series to be 100, 30, 10, 3, 1, 0.3, 0.1, 0.03 μM final. Reactions were performed in duplicate in black 384 well plates (small volume, Greiner 784076) in a final reaction volume of 21 μl. Either 1 μl of 50% DMSO or diluted compound was added to the plate. Cezanne 1 was diluted in reaction buffer (40 mM Tris, pH 7.5, 0.005% Tween 20, 0.5 mg/ml BSA, 5 mM-beta-mercaptoethanol) to the equivalent of 0.005 μl/well and 10 μl of diluted Cezanne 1 was added to the compound. Enzyme and compound were incubated for 30 min at room temp. Reactions were initiated by the addition of 50 nM of TAMRA labelled peptide linked to ubiquitin via an iso-peptide bond as fluorescence polarisation substrate. Reactions were read immediately after addition of substrate and following a 2 hr incubation at room temperature. Readings were performed on a Pherastar Plus. λ Excitation 540 nm; λ Emission 590 nm. A general note: Polarisation of emitted light reports the rotation of a fluorescent probe.

What is called IC50 is the concentration that inhibits the measured activity by half. With `Cc1ccc2[nH]ncc2c1-c1cnc2c(c1)NC(=O)C1(CCN(C#N)C1)N2` (stereo unspecified), the IC50 is < 100 nM.

For the origin of these results see ChEMBL document CHEMBL5727708, “Spiro-condensed pyrrolidine derivatives as deubiquitylating enzymes (DUB) inhibitors” (2020).
